Species: Rattus norvegicus
Assay: DrugMatrix - Regimen: Daily Repeat
Type: toxicity, organism-based, Sprague-Dawley
Design: regimen Daily Repeat, gender Male, age 6-8 weeks
Settings: in vivo, po, route oral GAVAGE, vehicle .5 % CMC; for ABSOLUTE BASOPHIL / ABSOLUTE EOSINOPHIL / ABSOLUTE MONOCYTE / ABSOLUTE SEGMENTED NEUTROPHIL / BASOPHIL / EOSINOPHIL / ERYTHROCYTE COUNT / HEMATOCRIT / HEMOGLOBIN / LEUKOCYTE COUNT / LYMPHOCYTE / MEAN CORPUSCULAR HEMOGLOBIN / MEAN CORPUSCULAR HEMOGLOBIN CONCENTRATION / MEAN CORPUSCULAR VOLUME / MONOCYTE / NEUTROPHIL / NUCLEATED RED BLOOD CELLS / PLATELET COUNT: tissue Blood; for ALANINE AMINOTRANSFERASE / ALBUMIN / ALKALINE PHOSPHATASE / ASPARTATE AMINOTRANSFERASE / BLOOD UREA NITROGEN / CARBON DIOXIDE / CHLORIDE / CHOLESTEROL / CREATINE PHOSPHOKINASE / CREATININE / GLUCOSE / LACTATE DEHYDROGENASE / LIPASE / PHOSPHORUS / POTASSIUM / SODIUM / TOTAL BILIRUBIN / TOTAL PROTEIN / URIC ACID: tissue Plasma
[1] = 0 mg/kg, 72 h, dose level Control, time 3 day
[2] = 0 mg/kg, 120 h, dose level Control, time 5 day
[3] = […], 72 h, dose 6.5 mg/Kg, dose level Low, time 3 day
[4] = […], 120 h, dose 6.5 mg/Kg, dose level Low, time 5 day

In the case of CN(C)CCOC(c1ccccc1)c1ccccc1.Cn1c(=O)c2[nH]c(Cl)nc2n(C)c1=O [DIMENHYDRINATE], the “ABSOLUTE BASOPHIL” value [1] is reported as 0 CELLS/uL, the “ABSOLUTE EOSINOPHIL” value [1] is reported as 32.5 CELLS/uL and the “ABSOLUTE MONOCYTE” value [1] is reported as 474 CELLS/uL. For the same molecule, the “ABSOLUTE SEGMENTED NEUTROPHIL” value [1] was 1932.67 CELLS/uL, the BASOPHIL [1] was 0% and the EOSINOPHIL [1] was 0.17%. For the same molecule, the “ERYTHROCYTE COUNT” value [1] was 5.45 x10E6/uL, the HEMATOCRIT [1] was 34.32% and the HEMOGLOBIN [1] was 13.82 G/DL. For the same molecule, the “LEUKOCYTE COUNT” value [1] was 15.93 x10E3/uL, the LYMPHOCYTE [1] was 84.83% and the “MEAN CORPUSCULAR HEMOGLOBIN” value [1] was 25.38 pg. The “MEAN CORPUSCULAR HEMOGLOBIN CONCENTRATION” value [1] was 40.27 G/DL, the “MEAN CORPUSCULAR VOLUME” value [1] was 63.05 fL and the MONOCYTE [1] was 3%. The NEUTROPHIL [1] was 12%, the “NUCLEATED RED BLOOD CELLS” value [1] was 0.67 /100WBC and the “PLATELET COUNT” value [1] was 1188.5 x10E3/uL. The “ALANINE AMINOTRANSFERASE” value [1] was 54.83 u/L, the ALBUMIN [1] was 4.22 G/DL and the “ALKALINE PHOSPHATASE” value [1] was 427.67 u/L. The “ASPARTATE AMINOTRANSFERASE” value [1] was 86.5 u/L, the “BLOOD UREA NITROGEN” value [1] was 15.33 mg/dL and the “CARBON DIOXIDE” value [1] was 24.83 mmol/L. For the same molecule, the CHLORIDE [1] was 102.33 MEQ/L, the CHOLESTEROL [1] was 71.67 mg/dL and the “CREATINE PHOSPHOKINASE” value [1] was 442.5 u/L. For the same molecule, the CREATININE [1] was 0.19 mg/dL, the GLUCOSE [1] was 160.67 mg/dL and the “LACTATE DEHYDROGENASE” value [1] was 236.5 u/L. The LIPASE [1] was 9 u/L, the PHOSPHORUS [1] was 11.97 mg/dL and the POTASSIUM [1] was 6.2 MEQ/L. The SODIUM [1] was 142.85 MEQ/L, the “TOTAL BILIRUBIN” value [1] was 0.2 mg/dL and the “TOTAL PROTEIN” value [1] was 5.8 G/DL. The “URIC ACID” value [1] was 1.3 mg/dL, the “ABSOLUTE BASOPHIL” value [2] was 0 CELLS/uL and the “ABSOLUTE EOSINOPHIL” value [2] was 114.5 CELLS/uL. The “ABSOLUTE MONOCYTE” value [2] was 173 CELLS/uL, the “ABSOLUTE SEGMENTED NEUTROPHIL” value [2] was 1048.5 CELLS/uL and the BASOPHIL [2] was 0%. For the same molecule, the EOSINOPHIL [2] was 0.67%, the “ERYTHROCYTE COUNT” value [2] was 5.66 x10E6/uL and the HEMATOCRIT [2] was 35.52%. For the same molecule, the HEMOGLOBIN [2] was 14.27 G/DL, the “LEUKOCYTE COUNT” value [2] was 15.95 x10E3/uL and the LYMPHOCYTE [2] was 91.33%. For the same molecule, the “MEAN CORPUSCULAR HEMOGLOBIN” value [2] was 25.23 pg, the “MEAN CORPUSCULAR HEMOGLOBIN CONCENTRATION” value [2] was 40.2 G/DL and the “MEAN CORPUSCULAR VOLUME” value [2] was 62.7 fL. The MONOCYTE [2] was 1.17%, the NEUTROPHIL [2] was 6.83% and the “NUCLEATED RED BLOOD CELLS” value [2] was 0.33 /100WBC. The “PLATELET COUNT” value [2] was 1229 x10E3/uL, the “ALANINE AMINOTRANSFERASE” value [2] was 58.67 u/L and the ALBUMIN [2] was 4.32 G/DL. The “ALKALINE PHOSPHATASE” value [2] was 382.5 u/L, the “ASPARTATE AMINOTRANSFERASE” value [2] was 81.67 u/L and the “BLOOD UREA NITROGEN” value [2] was 17.67 mg/dL. For the same molecule, the “CARBON DIOXIDE” value [2] was 27.17 mmol/L, the CHLORIDE [2] was 102.33 MEQ/L and the CHOLESTEROL [2] was 63.67 mg/dL. For the same molecule, the “CREATINE PHOSPHOKINASE” value [2] was 227.67 u/L, the CREATININE [2] was 0.23 mg/dL and the GLUCOSE [2] was 155.33 mg/dL. For the same molecule, the “LACTATE DEHYDROGENASE” value [2] was 146.5 u/L, the LIPASE [2] was 10.67 u/L and the PHOSPHORUS [2] was 11.93 mg/dL. For the same molecule, the POTASSIUM [2] was 6.85 MEQ/L, the SODIUM [2] was 143.95 MEQ/L and the “TOTAL BILIRUBIN” value [2] was 0.18 mg/dL. The “TOTAL PROTEIN” value [2] was 6.02 G/DL, the “URIC ACID” value [2] was 1.63 mg/dL and the “ABSOLUTE BASOPHIL” value [3] was 0 CELLS/uL. For the same molecule, the “ABSOLUTE EOSINOPHIL” value [3] was 46.67 CELLS/uL, the “ABSOLUTE MONOCYTE” value [3] was 474 CELLS/uL and the “ABSOLUTE SEGMENTED NEUTROPHIL” value [3] was 1911.67 CELLS/uL. For the same molecule, the BASOPHIL [3] was 0%, the EOSINOPHIL [3] was 0.33% and the “ERYTHROCYTE COUNT” value [3] was 5.67 x10E6/uL. For the same molecule, the HEMATOCRIT [3] was 35.5%, the HEMOGLOBIN [3] was 13.93 G/DL and the “LEUKOCYTE COUNT” value [3] was 14.93 x10E3/uL. For the same molecule, the LYMPHOCYTE [3] was 84%, the “MEAN CORPUSCULAR HEMOGLOBIN” value [3] was 24.57 pg and the “MEAN CORPUSCULAR HEMOGLOBIN CONCENTRATION” value [3] was 39.27 G/DL. For the same molecule, the “MEAN CORPUSCULAR VOLUME” value [3] was 62.6 fL, the MONOCYTE [3] was 3% and the NEUTROPHIL [3] was 12.67%. The “NUCLEATED RED BLOOD CELLS” value [3] was 0 /100WBC, the “PLATELET COUNT” value [3] was 1199.33 x10E3/uL and the “ALANINE AMINOTRANSFERASE” value [3] was 47.67 u/L. The ALBUMIN [3] was 4.03 G/DL, the “ALKALINE PHOSPHATASE” value [3] was 343 u/L and the “ASPARTATE AMINOTRANSFERASE” value [3] was 87 u/L. The “BLOOD UREA NITROGEN” value [3] was 15 mg/dL, the “CARBON DIOXIDE” value [3] was 25.67 mmol/L and the CHLORIDE [3] was 102 MEQ/L. For the same molecule, the CHOLESTEROL [3] was 75.33 mg/dL, the “CREATINE PHOSPHOKINASE” value [3] was 266 u/L and the CREATININE [3] was 0.14 mg/dL. For the same molecule, the GLUCOSE [3] was 167.33 mg/dL, the “LACTATE DEHYDROGENASE” value [3] was 166 u/L and the LIPASE [3] was 9.33 u/L. For the same molecule, the PHOSPHORUS [3] was 12.2 mg/dL, the POTASSIUM [3] was 6.53 MEQ/L and the SODIUM [3] was 144.67 MEQ/L. The “TOTAL BILIRUBIN” value [3] was 0.2 mg/dL, the “TOTAL PROTEIN” value [3] was 5.6 G/DL and the “URIC ACID” value [3] was 1.57 mg/dL. For the same molecule, the “ABSOLUTE BASOPHIL” value [4] was 0 CELLS/uL, the “ABSOLUTE EOSINOPHIL” value [4] was 108.67 CELLS/uL and the “ABSOLUTE MONOCYTE” value [4] was 85.67 CELLS/uL. The “ABSOLUTE SEGMENTED NEUTROPHIL” value [4] was 1586.67 CELLS/uL, the BASOPHIL [4] was 0% and the EOSINOPHIL [4] was 0.67%. For the same molecule, the “ERYTHROCYTE COUNT” value [4] was 5.47 x10E6/uL, the HEMATOCRIT [4] was 34.93% and the HEMOGLOBIN [4] was 14.13 G/DL. For the same molecule, the “LEUKOCYTE COUNT” value [4] was 19.43 x10E3/uL, the LYMPHOCYTE [4] was 91.67% and the “MEAN CORPUSCULAR HEMOGLOBIN” value [4] was 25.8 pg. For the same molecule, the “MEAN CORPUSCULAR HEMOGLOBIN CONCENTRATION” value [4] was 40.47 G/DL, the “MEAN CORPUSCULAR VOLUME” value [4] was 63.8 fL and the MONOCYTE [4] was 0.33%. For the same molecule, the NEUTROPHIL [4] was 7.33%, the “NUCLEATED RED BLOOD CELLS” value [4] was 0 /100WBC and the “PLATELET COUNT” value [4] was 1543 x10E3/uL. The “ALANINE AMINOTRANSFERASE” value [4] was 48.67 u/L, the ALBUMIN [4] was 4.17 G/DL and the “ALKALINE PHOSPHATASE” value [4] was 266.33 u/L. For the same molecule, the “ASPARTATE AMINOTRANSFERASE” value [4] was 77.33 u/L, the “BLOOD UREA NITROGEN” value [4] was 18.67 mg/dL and the “CARBON DIOXIDE” value [4] was 25 mmol/L. For the same molecule, the CHLORIDE [4] was 96 MEQ/L, the CHOLESTEROL [4] was 71.33 mg/dL and the “CREATINE PHOSPHOKINASE” value [4] was 225.67 u/L. The CREATININE [4] was 0.2 mg/dL, the GLUCOSE [4] was 159 mg/dL and the “LACTATE DEHYDROGENASE” value [4] was 96.67 u/L. For the same molecule, the LIPASE [4] was 10 u/L, the PHOSPHORUS [4] was 13.07 mg/dL and the POTASSIUM [4] was 6.62 MEQ/L. The SODIUM [4] was 135.4 MEQ/L, the “TOTAL BILIRUBIN” value [4] was 0.13 mg/dL and the “TOTAL PROTEIN” value [4] was 5.8 G/DL. For the same molecule, the “URIC ACID” value [4] was 2.27 mg/dL.
